Data taken from PubChem BioAssay (NCI).
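Method: 48-hour compound exposure of cells in 96-well plates, five concentrations, linear interpolation of endpoints. GI50 marks 50% less growth. TGI denotes the concentration required for complete inhibition of growth.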

Assays:
Assay in all cases: NCI tumour cell line growth inhibition, 48 h
786-0 renal = test system: 786-0 renal
SK-MEL-2 melanoma = test system: SK-MEL-2 melanoma
HOP-62 NSCLC = test system: HOP-62 NSCLC
HL-60(TB) leukemia = test system: HL-60(TB) leukemia
MDA-MB-231 breast = test system: MDA-MB-231 breast
TK-10 renal = test system: TK-10 renal
HOP-92 NSCLC = test system: HOP-92 NSCLC
NCI/ADR-RES ovarian = test system: NCI/ADR-RES ovarian
SF-295 CNS = test system: SF-295 CNS
SNB-75 CNS = test system: SNB-75 CNS

Row | Compound | GI50 (786-0 renal) | TGI (786-0 renal) | GI50 (SK-MEL-2 melanoma) | TGI (SK-MEL-2 melanoma) | GI50 (HOP-62 NSCLC) | TGI (HOP-62 NSCLC) | GI50 (HL-60(TB) leukemia) | GI50 (MDA-MB-231 breast) | TGI (MDA-MB-231 breast) | GI50 (TK-10 renal) | TGI (TK-10 renal) | GI50 (HOP-92 NSCLC) | TGI (HOP-92 NSCLC) | GI50 (NCI/ADR-RES ovarian) | TGI (NCI/ADR-RES ovarian) | GI50 (SF-295 CNS) | TGI (SF-295 CNS) | GI50 (SNB-75 CNS) | TGI (SNB-75 CNS) | TGI (HL-60(TB) leukemia)
1 | COc1ccc(CC(NC(=O)[C@H](C)NC(=O)CN2CCOCC2)C(=O)N[C@@H](Cc2ccccc2)C(=O)[C@@]2(C)CO2)cc1 (some centres undefined) | 0.364 µM | 1.76 µM | 0.264 µM | 0.974 µM | 0.191 µM | 0.453 µM | 0.157 µM | 0.24 µM | 1.1 µM | 0.47 µM | 4.93 µM | 0.227 µM | 0.758 µM | 19.8 µM | > 100 µM | 0.185 µM | 0.587 µM | 0.175 µM | 0.427 µM | 
2 | O=C(Nc1cccc(O)c1)c1cccc(NC2=C(Cl)C(=O)N(Cc3ccccc3)C2=O)c1 | 15.2 µM | 30.2 µM | 4.63 µM | 19.3 µM | 19.2 µM | 33.6 µM | 4.88 µM | 11.9 µM | 31.9 µM | 15 µM | 29.8 µM | 11.7 µM | 29.4 µM | 19.7 µM | 37 µM | 6.39 µM | 21.3 µM | 18.4 µM | 36.3 µM | 27.9 µM
3 | O=S(=O)(O)/C(=C\c1ccccc1)c1ccccc1 (tested in a mixture with another compound) |  | > 100 µM |  | > 100 µM |  | > 100 µM |  |  | > 100 µM |  | > 100 µM |  | > 100 µM |  | > 100 µM |  | > 100 µM |  | > 100 µM | > 100 µM
4 | Cc1cccc2c1O/C(=C\c1ccc([N+](=O)[O-])o1)C2=O | 1.8 µM | 4.27 µM | 1.76 µM | 3.52 µM | 1.64 µM | 4.44 µM | 1.58 µM | 1.21 µM | 3.61 µM | 2.3 µM | 5.61 µM | 1.16 µM | 2.95 µM | 2.54 µM | > 60.4 µM | 2 µM | 6.46 µM | 1.64 µM | 5.8 µM | 4.35 µM
5 | COC1C(O)C(C)OC(OC2CC3CCC4C(CCC5(C)C(C6=CC(=O)OC6)CCC45O)C3(O)C(OC(C)=O)C2)C1O (centres undefined) |  | > 100 µM |  | 10.1 µM |  | 2.59 µM |  |  | 97.3 µM |  | 6.8 µM |  | 11.6 µM |  | 6.32 µM |  | 8.57 µM |  | > 31.2 µM | 4.23 µM
6 | O=C(O)c1cscc1Cc1cccs1 |  | > 100 µM |  | > 100 µM |  | > 100 µM |  |  | > 100 µM |  | > 100 µM |  | > 100 µM |  | > 100 µM |  | > 100 µM |  | > 100 µM | > 100 µM
7 | CC1SC(c2c(Cl)cccc2Cl)N(NC(=O)C(O)c2ccccc2)C1=O (centres undefined) | > 100 µM | > 100 µM | > 100 µM | > 100 µM | 89.3 µM | > 100 µM | 94 µM | 31.6 µM | > 100 µM | > 100 µM | > 100 µM | 57.8 µM | > 100 µM | 45.4 µM | > 100 µM | > 100 µM | > 100 µM | 46.9 µM | > 100 µM | > 100 µM
